Measurements published in patent publication US12466820B2, “Amino quinazoline derivatives as P2X3 inhibitors” (CHIESI FARMACEUTICI S.p.A., priority 2019, dated 2025).

Tests used:
[1] = molecular target: T1, h P2X3 (Homo sapiens, UniProt P56373); assay: In vitro electrophysiology assay for P2X3 (automated whole-cell patch clamp, Sophion Qube); assay type: cell-based; details: range of activity
T1 sequence (P56373 1-397): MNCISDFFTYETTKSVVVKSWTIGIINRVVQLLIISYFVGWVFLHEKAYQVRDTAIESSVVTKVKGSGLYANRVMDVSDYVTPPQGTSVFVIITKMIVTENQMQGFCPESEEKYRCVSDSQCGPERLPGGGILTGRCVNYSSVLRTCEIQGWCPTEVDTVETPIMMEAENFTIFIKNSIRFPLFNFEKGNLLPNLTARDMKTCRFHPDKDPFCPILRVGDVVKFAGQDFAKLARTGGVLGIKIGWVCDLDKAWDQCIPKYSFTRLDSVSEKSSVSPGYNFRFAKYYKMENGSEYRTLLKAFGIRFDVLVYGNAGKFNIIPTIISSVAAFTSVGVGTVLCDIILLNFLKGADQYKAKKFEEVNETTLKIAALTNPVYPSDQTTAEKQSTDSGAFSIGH
Method in brief: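 Whole-cell automated patch clamp at room temperature, cells held at −60 mV; after two 800 nM α,β-MeATP baseline responses, antagonist preincubated 10 min then co-applied with 800 nM α,β-MeATP. Inhibition of peak current vs second agonist response; IC50 from 10-concentration curves, one concentration per cell.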

[2] = molecular target: T2, h P2X2/3 (Homo sapiens, UniProt P56373+Q9UBL9); assay: In vitro electrophysiology assay for P2X2/3 (same protocol, 10 μM ATP as agonist); assay type: cell-based; details: Table 7, range of activity
T2 sequence (P56373 1-397): T1 sequence (P56373 1-397)
T2 sequence (Q9UBL9 1-471): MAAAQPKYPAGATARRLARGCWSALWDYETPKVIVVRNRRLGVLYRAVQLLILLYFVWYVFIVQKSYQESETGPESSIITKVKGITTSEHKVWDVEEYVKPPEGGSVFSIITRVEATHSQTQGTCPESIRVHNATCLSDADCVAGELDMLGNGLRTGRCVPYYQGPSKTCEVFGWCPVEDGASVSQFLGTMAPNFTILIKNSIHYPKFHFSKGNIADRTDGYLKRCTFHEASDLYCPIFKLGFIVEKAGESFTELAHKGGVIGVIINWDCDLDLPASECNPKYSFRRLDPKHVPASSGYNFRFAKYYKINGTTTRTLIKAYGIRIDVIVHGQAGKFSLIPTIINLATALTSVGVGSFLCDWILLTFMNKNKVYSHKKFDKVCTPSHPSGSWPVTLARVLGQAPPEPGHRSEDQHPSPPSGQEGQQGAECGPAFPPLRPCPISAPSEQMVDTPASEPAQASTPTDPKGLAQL

[3] = Table 6, inhibition of P2X3 current, agonist α,β-MeATP (800 nM)

| IC50 [1, 3] [nM] | IC50 ([1]; Table 7) [nM] | IC50 [2] [nM] | SMILES |
| --- | --- | --- | --- |
| < 316 | < 316 | 3160 to 31600 | COc1cc(-c2ncc(C)cc2F)cc2c(N[C@H](C)c3noc(C)n3)ncnc12 [Example 157, 6-(3-fluoro-5-methyl-2-pyridyl)-8-methoxy-N-[(1R)-1-(5-methyl-1,2,4-oxadiazol-3-yl)ethyl]quinazolin-4-amine] |
| < 316 | < 316 | 3160 to 31600 | COc1cc(-c2ccc(C)cn2)cc2c(N[C@H](C)c3ccn(C)n3)ncnc12 [Example 159, 8-methoxy-N-[(1R)-1-(1-methylpyrazol-3-yl)ethyl]-6-(5-methyl-2-pyridyl)quinazolin-4-amine] |
